Measured values reported in ChEMBL document CHEMBL1201862, “PubChem BioAssay data set” (2004).
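Assay format: 96-well plates, 48-hour exposure. GI50 marks 50% less growth.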 Active and inactive are the calls of the source. Rule as the data show it: active = GI50 up to about 1.1 µM and inactive = higher.

Key:
Assay in all cases: NCI anticancer screen, dose series, 48 h
A498 = tested on: A498
ACHN = tested on: ACHN
CCRF-CEM = tested on: CCRF-CEM
DMS-114 = tested on: DMS-114
HCT-116 = tested on: HCT-116
HCT-15 = tested on: HCT-15
HL-60 = tested on: HL-60
KM12 = tested on: KM12
M14 = tested on: M14
SK-MEL-28 = tested on: SK-MEL-28
SK-OV-3 = tested on: SK-OV-3
SN12C = tested on: SN12C
SW-620 = tested on: SW-620
TK-10 = tested on: TK-10
UO-31 = tested on: UO-31
Malme-3M = tested on: Malme-3M

Measured: GI50

CC1(C)C=C(N2CCN(C3=CC(C)(C)NC(C)(C)C3)CC2)CC(C)(C)N1
inactive: A498 > 100 µM | ACHN > 100 µM | CCRF-CEM > 100 µM | DMS-114 > 100 µM | HCT-116 > 100 µM | HL-60 > 100 µM | KM12 > 100 µM | M14 > 100 µM | SK-MEL-28 > 100 µM | SK-OV-3 > 100 µM | SN12C > 100 µM | SW-620 > 100 µM | TK-10 > 100 µM | UO-31 > 100 µM
> 100 µM: HCT-15

COc1ccc2c(c1)[n+]([O-])c(C(=O)CC(=O)C(=O)Nc1cccc(C)c1C)c(C)[n+]2[O-]
> 100 µM: HCT-15
inactive: ACHN > 100 µM | CCRF-CEM > 100 µM | DMS-114 > 100 µM | HCT-116 > 100 µM | HL-60 > 100 µM | KM12 > 100 µM | M14 > 100 µM | Malme-3M > 100 µM | SK-MEL-28 > 100 µM | SK-OV-3 > 100 µM | SN12C > 100 µM | SW-620 > 100 µM | TK-10 > 100 µM | UO-31 > 100 µM

CCOC(=O)CCC(=O)C1c2cccc(O)c2C(=O)c2c(O)cc(C)cc21 (stereo not drawn)
inactive: A498 2.28 µM | M14 1.4 µM | Malme-3M 1.34 µM | SK-MEL-28 1.48 µM | SN12C 1.79 µM | TK-10 1.87 µM
active: ACHN 0.993 µM | CCRF-CEM 0.519 µM | DMS-114 0.296 µM | HCT-116 0.805 µM | HL-60 0.676 µM | KM12 0.245 µM | SK-OV-3 0.865 µM | SW-620 0.948 µM | UO-31 0.627 µM
0.826 µM: HCT-15

Cc1ccc(N2C(=O)/C(=C3\Sc4c(nc(C)n(C)c4=O)N3c3ccccc3)SC2=S)cc1
inactive: A498 30.1 µM | ACHN > 100 µM | CCRF-CEM > 100 µM | DMS-114 35.6 µM | HCT-116 64.7 µM | HL-60 > 100 µM | KM12 > 100 µM | M14 > 100 µM | SK-MEL-28 41.1 µM | SK-OV-3 54.8 µM | SN12C 43.4 µM | SW-620 > 100 µM | TK-10 32.8 µM | UO-31 > 100 µM
> 100 µM: HCT-15

CC1COC(C)(C)P(=O)(c2ccccc2)C1 (stereo not drawn)
inactive: A498 > 100 µM | ACHN > 100 µM | CCRF-CEM > 100 µM | DMS-114 > 100 µM | HCT-116 > 100 µM | HL-60 > 100 µM | KM12 > 100 µM | M14 > 100 µM | Malme-3M > 100 µM | SK-MEL-28 > 100 µM | SK-OV-3 > 100 µM | SN12C > 100 µM | SW-620 > 100 µM | TK-10 > 100 µM | UO-31 > 100 µM
> 100 µM: HCT-15

CCOC(=O)/C(=C\c1ccc(OCc2ccccc2)c(OC)c1)C(=O)c1ccccc1
20.4 µM: HCT-15
inactive: ACHN 18.1 µM | CCRF-CEM 23.6 µM | DMS-114 19.7 µM | HCT-116 17.5 µM | HL-60 20.1 µM | KM12 19.5 µM | M14 15 µM | Malme-3M 16.7 µM | SK-MEL-28 14.6 µM | SK-OV-3 64.9 µM | SN12C 23 µM | SW-620 18.4 µM | TK-10 27.5 µM | UO-31 18.1 µM

O=C1OC(Cc2ccccc2)(N2CCCC2=O)C1c1ccccc1 (stereo not drawn)
inactive: A498 4.95 µM | ACHN 75.2 µM | CCRF-CEM 43.9 µM | DMS-114 23.7 µM | HCT-116 53.2 µM | HL-60 43 µM | KM12 74.8 µM | M14 > 100 µM | Malme-3M > 100 µM | SK-MEL-28 > 100 µM | SK-OV-3 73.1 µM | SN12C 67.5 µM | SW-620 65.5 µM | TK-10 > 100 µM | UO-31 > 100 µM

CC(=O)OCc1c2ccccc2c(C)c2c1cc(F)c1ccccc12
inactive: A498 39 µM | ACHN 17.5 µM | CCRF-CEM 12.2 µM | DMS-114 31.5 µM | HCT-116 31.3 µM | HL-60 23 µM | KM12 > 100 µM | M14 34 µM | Malme-3M 52.2 µM | SK-MEL-28 97.5 µM | SK-OV-3 52.5 µM | SN12C 15.1 µM | SW-620 20.5 µM | TK-10 > 100 µM | UO-31 38 µM

Cc1ccc(S(=O)OC23CC4CC(CC(C4)C2)C3)cc1 (stereo not drawn)
inactive: A498 > 100 µM | ACHN > 100 µM | DMS-114 78.5 µM | HCT-116 > 100 µM | HL-60 19.4 µM | KM12 > 100 µM | M14 > 100 µM | Malme-3M > 100 µM | SK-MEL-28 > 100 µM | SK-OV-3 > 100 µM | SN12C > 100 µM | SW-620 84.1 µM | TK-10 > 100 µM | UO-31 41.2 µM
> 100 µM: HCT-15

Nc1ccc(C(=O)NN2C(=O)C(Cl)C2c2ccc(O)cc2)cc1 (stereo not drawn)
inactive: A498 36 µM | ACHN 35.2 µM | CCRF-CEM 12.3 µM | DMS-114 13 µM | HCT-116 19.2 µM | HL-60 15.6 µM | KM12 21.8 µM | M14 17.5 µM | Malme-3M 18.5 µM | SK-MEL-28 22.1 µM | SK-OV-3 22.8 µM | SN12C 20.1 µM | SW-620 23.3 µM | TK-10 44.3 µM | UO-31 23.3 µM
21.4 µM: HCT-15

[O-][Cl+3]([O-])([O-])O.c1ccc(/N=c2\nc(N3CCOCC3)ss2)cc1
active: CCRF-CEM 0.016 µM
inactive: A498 27.7 µM | ACHN 16.5 µM | DMS-114 14.6 µM | HCT-116 14.6 µM | HL-60 14.6 µM | KM12 17.2 µM | M14 14.7 µM | Malme-3M 14.8 µM | SK-MEL-28 17.2 µM | SK-OV-3 > 100 µM | SN12C 15.1 µM | SW-620 10.2 µM | TK-10 46.5 µM | UO-31 28.6 µM
15.5 µM: HCT-15

COc1ccc(CCNCc2cccc(OC)c2OC)cc1OC
inactive: ACHN > 100 µM | CCRF-CEM > 100 µM | DMS-114 > 100 µM | HL-60 > 100 µM | KM12 > 100 µM | M14 > 100 µM | Malme-3M > 100 µM | SK-MEL-28 > 100 µM | SK-OV-3 > 100 µM | SN12C > 100 µM | SW-620 > 100 µM | TK-10 > 100 µM | UO-31 > 100 µM
> 100 µM: HCT-15

COC(=O)C1=C(c2cc(OC)c(OC)c(OC)c2)OC(c2cc(OC)c(OC)c(OC)c2)C1 (stereo not drawn)
inactive: A498 24.1 µM | ACHN 20.2 µM | CCRF-CEM 24.1 µM | DMS-114 30.7 µM | HCT-116 17 µM | KM12 17.7 µM | M14 20.5 µM | Malme-3M 31.3 µM | SK-MEL-28 53.1 µM | SK-OV-3 25.6 µM | SN12C 19.2 µM | SW-620 34.4 µM | TK-10 25 µM | UO-31 12.3 µM
22.7 µM: HCT-15
